From article PMC12090182, “Repurposing of the RIPK1-Selective Benzo[1,4]oxazepin-4-one Scaffold for the Development of a Type III LIMK1/2 Inhibitor” (ACS Chemical Biology, 2025)
Read-outs that look alike come from different tables or passages of the source.

Tested on: HEK293T cells
Assay type: cell-based
Procedure, shortened: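 HEK293T and U2OS cells (DMEM) and MRC-9 fibroblasts (EMEM) exposed to compounds at 1 and 10 μM. Live-cell confocal imaging of cell shape and fluorescence before and at 12, 24 and 48 h. Normalized to 0.1% DMSO; biological duplicates with SEM.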

[1] = 1 µM, 0 h, HEK293T, replicate 2
[2] = 1 µM, 12 h, HEK293T, replicate 2
[3] = 1 µM, 24 h, HEK293T, replicate 2
[4] = 1 µM, 48 h, HEK293T, replicate 1
[5] = 1 µM, 48 h, HEK293T, replicate 2
[6] = 10 µM, 0 h, HEK293T, replicate 2
[7] = 10 µM, 12 h, HEK293T, replicate 2
[8] = 10 µM, 24 h, HEK293T, replicate 2
[9] = 10 µM, 48 h, HEK293T, replicate 2
[10] = HEK293T, 1 µM, 0 h after treatment
[11] = HEK293T, 1 µM, 12 h after treatment
[12] = HEK293T, 1 µM, 24 h after treatment
[13] = HEK293T, 10 µM, 0 h after treatment
[14] = HEK293T, 10 µM, 12 h after treatment
[15] = HEK293T, 10 µM, 24 h after treatment
[16] = HEK293T, 10 µM, 48 h after treatment

CN1C(=O)[C@@H](N2CCc3c(nn(Cc4ccccc4)c3C(N)=O)C2=O)COc2cc(Cl)ccc21 [Compound 10, (S)-2-benzyl-6-(8-chloro-5-methyl-4-oxo-2,3,4,5-tetrahydrobenzo[b][1,4]oxazepin-3-yl)-7-oxo-4,5,6,7-tetrahydro-2H-pyrazolo[3,4-c]pyridine-3-carboxamide]
Cell count normalized to cells treated with DMSO control [1]: 0.9791
Cell count per well [1]: 224
Population Fragmented Nuclei (%) [1]: 4.50%
Population Healthy Nuclei (%) [1]: 67.00%
Population Pyknosed Nuclei (%) [1]: 28.50%
Population apoptotic cell (%) [1]: 66.67%
Population cell that influence microtubule strucutre (%) [1]: 23.88%
Population with increased mitochondrial mass (%) [1]: 83.58%
Population with membrane disruption (%) [1]: 0.00%
Cell count normalized to cells treated with DMSO control [2]: 1.07
Cell count per well [2]: 375
Population Fragmented Nuclei (%) [2]: 6.44%
Population Healthy Nuclei (%) [2]: 80.67%
Population Pyknosed Nuclei (%) [2]: 12.89%
Population apoptotic cell (%) [2]: 23.91%
Population cell that influence microtubule strucutre (%) [2]: 20.49%
Population with increased mitochondrial mass (%) [2]: 45.83%
Population with membrane disruption (%) [2]: 0.69%
Cell count normalized to cells treated with DMSO control [3]: 1.152
Cell count per well [3]: 520
Population Fragmented Nuclei (%) [3]: 9.33%
Population Healthy Nuclei (%) [3]: 82.94%
Population Pyknosed Nuclei (%) [3]: 7.74%
Population apoptotic cell (%) [3]: 43.59%
Population cell that influence microtubule strucutre (%) [3]: 13.64%
Population with increased mitochondrial mass (%) [3]: 27.75%
Population with membrane disruption (%) [3]: 0.24%
Cell count normalized to cells treated with DMSO control [4]: 1.025
Cell count per well [4]: 1037
Population Fragmented Nuclei (%) [4]: 16.00%
Population Healthy Nuclei (%) [4]: 79.80%
Population Pyknosed Nuclei (%) [4]: 4.20%
Population apoptotic cell (%) [4]: 6.98%
Population cell that influence microtubule strucutre (%) [4]: 10.88%
Population with increased mitochondrial mass (%) [4]: 12.47%
Population with membrane disruption (%) [4]: 2.32%
Cell count normalized to cells treated with DMSO control [5]: 1.189
Cell count per well [5]: 812
Population Fragmented Nuclei (%) [5]: 18.11%
Population Healthy Nuclei (%) [5]: 75.56%
Population Pyknosed Nuclei (%) [5]: 6.33%
Population apoptotic cell (%) [5]: 17.65%
Population cell that influence microtubule strucutre (%) [5]: 11.82%
Population with increased mitochondrial mass (%) [5]: 11.00%
Population with membrane disruption (%) [5]: 1.97%
cytotoxicity (1 μM, HEK293T): no cytotoxicity
Cell count normalized to cells treated with DMSO control [6]: 0.8086
Cell count per well [6]: 185
Population Fragmented Nuclei (%) [6]: 2.99%
Population Healthy Nuclei (%) [6]: 66.47%
Population Pyknosed Nuclei (%) [6]: 30.54%
Population apoptotic cell (%) [6]: 64.71%
Population cell that influence microtubule strucutre (%) [6]: 27.03%
Population with increased mitochondrial mass (%) [6]: 85.59%
Population with membrane disruption (%) [6]: 0.00%
Cell count normalized to cells treated with DMSO control [7]: 0.8449
Cell count per well [7]: 296
Population Fragmented Nuclei (%) [7]: 7.69%
Population Healthy Nuclei (%) [7]: 76.54%
Population Pyknosed Nuclei (%) [7]: 15.77%
Population apoptotic cell (%) [7]: 63.41%
Population cell that influence microtubule strucutre (%) [7]: 38.69%
Population with increased mitochondrial mass (%) [7]: 77.89%
Population with membrane disruption (%) [7]: 0.00%
Cell count normalized to cells treated with DMSO control [8]: 0.8682
Cell count per well [8]: 392
Population Fragmented Nuclei (%) [8]: 11.70%
Population Healthy Nuclei (%) [8]: 77.99%
Population Pyknosed Nuclei (%) [8]: 10.31%
Population apoptotic cell (%) [8]: 56.76%
Population cell that influence microtubule strucutre (%) [8]: 28.21%
Population with increased mitochondrial mass (%) [8]: 65.71%
Population with membrane disruption (%) [8]: 0.00%
Cell count normalized to cells treated with DMSO control [9]: 0.7573
Cell count per well [9]: 517
Population Fragmented Nuclei (%) [9]: 16.37%
Population Healthy Nuclei (%) [9]: 77.05%
Population Pyknosed Nuclei (%) [9]: 6.59%
Population apoptotic cell (%) [9]: 39.39%
Population cell that influence microtubule strucutre (%) [9]: 19.17%
Population with increased mitochondrial mass (%) [9]: 40.93%
Population with membrane disruption (%) [9]: 0.00%
toxicity (10 μM, within the 48 h time frame, b30 names HEK293T (apoptotic cell population)): slight increase in toxicity
impact on tubulin, mitochondrial mass, and cellular permeability in healthy cells (HEK293T, 1 μM (Figure 6)): comparable to that of the 0.1% DMSO control
Cell count normalized to cells treated with DMSO control [10]: 1.066
Cell count per well [10]: 318
Population Fragmented Nuclei (%) [10]: 7.28%
Population Healthy Nuclei (%) [10]: 48.28%
Population Pyknosed Nuclei (%) [10]: 44.44%
Population apoptotic cell (%) [10]: 40.52%
Population cell that influence microtubule strucutre (%) [10]: 21.43%
Population with increased mitochondrial mass (%) [10]: 63.49%
Population with membrane disruption (%) [10]: 0.00%
Cell count normalized to cells treated with DMSO control [11]: 1.032
Cell count per well [11]: 470
Population Fragmented Nuclei (%) [11]: 6.59%
Population Healthy Nuclei (%) [11]: 81.41%
Population Pyknosed Nuclei (%) [11]: 12.00%
Population apoptotic cell (%) [11]: 25.49%
Population cell that influence microtubule strucutre (%) [11]: 28.03%
Population with increased mitochondrial mass (%) [11]: 37.86%
Population with membrane disruption (%) [11]: 0.58%
Cell count normalized to cells treated with DMSO control [12]: 1.043
Cell count per well [12]: 633
Population Fragmented Nuclei (%) [12]: 13.01%
Population Healthy Nuclei (%) [12]: 77.59%
Population Pyknosed Nuclei (%) [12]: 9.39%
Population apoptotic cell (%) [12]: 29.82%
Population cell that influence microtubule strucutre (%) [12]: 18.05%
Population with increased mitochondrial mass (%) [12]: 21.02%
Population with membrane disruption (%) [12]: 0.85%
Cell count normalized to cells treated with DMSO control [13]: 0.8779
Cell count per well [13]: 262
Population Fragmented Nuclei (%) [13]: 12.05%
Population Healthy Nuclei (%) [13]: 39.73%
Population Pyknosed Nuclei (%) [13]: 48.21%
Population apoptotic cell (%) [13]: 50.00%
Population cell that influence microtubule strucutre (%) [13]: 14.61%
Population with increased mitochondrial mass (%) [13]: 59.55%
Population with membrane disruption (%) [13]: 0.00%
Cell count normalized to cells treated with DMSO control [14]: 0.8806
Cell count per well [14]: 401
Population Fragmented Nuclei (%) [14]: 9.68%
Population Healthy Nuclei (%) [14]: 77.15%
Population Pyknosed Nuclei (%) [14]: 13.17%
Population apoptotic cell (%) [14]: 46.94%
Population cell that influence microtubule strucutre (%) [14]: 42.51%
Population with increased mitochondrial mass (%) [14]: 57.84%
Population with membrane disruption (%) [14]: 0.00%
Cell count normalized to cells treated with DMSO control [15]: 0.8057
Cell count per well [15]: 489
Population Fragmented Nuclei (%) [15]: 10.83%
Population Healthy Nuclei (%) [15]: 78.34%
Population Pyknosed Nuclei (%) [15]: 10.83%
Population apoptotic cell (%) [15]: 43.14%
Population cell that influence microtubule strucutre (%) [15]: 28.46%
Population with increased mitochondrial mass (%) [15]: 48.51%
Population with membrane disruption (%) [15]: 0.27%
Cell count normalized to cells treated with DMSO control [16]: 0.8197
Cell count per well [16]: 829
Population Fragmented Nuclei (%) [16]: 23.14%
Population Healthy Nuclei (%) [16]: 71.74%
Population Pyknosed Nuclei (%) [16]: 5.12%
Population apoptotic cell (%) [16]: 33.33%
Population cell that influence microtubule strucutre (%) [16]: 14.26%
Population with increased mitochondrial mass (%) [16]: 26.32%
Population with membrane disruption (%) [16]: 0.51%

CN1C(=O)[C@@H](N2CCc3c(C(N)=O)nn(Cc4ccccc4)c3C2=O)COc2ccccc21 [Compound 11]
Population with membrane disruption (%) (human, 0 h, 10 µM): 0.00%
Population with membrane disruption (%) (human, 12 h, 10 µM): 0.00%
Population with membrane disruption (%) (human, 24 h, 10 µM): 0.00%
